This is an account of results in patent US20030109418A1, “Methods for identifying compounds for inhibition of neoplastic lesions, and pharmaceutical compositions containing such compounds” (priority 1999, published 2003).

The term GI50 denotes the concentration at which growth is held to half of that of the control. The low end stands for greater sensitivity of the cells, the high end for lower sensitivity of the cells. A word on the IC50: it is the concentration at which inhibition is half-maximal. Read a high IC50 as weaker potency.

The structures appear in SMILES notation. Counter-ions that a name gives are not always drawn.

In data set [1] the test system is aberrant crypt foci (ACF) in colon. Kind of data set: Azoxymethane-induced aberrant crypt foci model. It counts as in vivo, rat. The following applies: for Mean ACF/colon (+ SE): free base, 5 weeks. As for the experimental part: The growth inhibition IC50 value obtained for Compound I was 0.7 μM in the SW-480 cell line. […] This established rodent model of azoxymethane (“AOM”)-induced carcinogenesis was used to assess the effects of Compound I (free base and salt) on colon cancer development in vivo. ACF are precursors to colonic tumors, and ACF inhibition is predictive of chemo-preventive efficacy.
In the rats in this experiment, ACF initiation was achieved by two consecutive weekly injections of the carcinogen. Compound I was administered one week prior to ACF initiation and for the duration of the experiment. ACFs were scored after 5 weeks of treatment. Compound I was administered orally to male Fisher 344 rats in the rat chow. Daily food consumption (mg/kg body weight) varied over the course of the study, and therefore Compound I dose was expressed a grams per kg of diet to provide a basis of comparison between doses. […] The experimental groups gained less weight than the controls, which was indicative of bioavailability. However, the weight differences were less than 10% and not considered to affect ACF formation.
The free base of Compound I inhibited ACF formation as measured by a reduction of crypts per colon. With the exception of the low dose group (only 0.5 g/kg diet), the differences between treatment and control groups were substantial, and statistically significant in the case of the 1.0 and 2.0 g/kg diet group.

In a further data set the test system is SW-620. As to the kind of experiment: Growth inhibition, neutral red assay, SW-620. It counts as cell-based, human. The following applies: free base, five days. The procedure: (§1) Compound I's activity is not confined to activity against colon cancer cell lines or animal models of colon cancer. It has a broad range of anti-neoplastic effects in various neoplastic cell lines. Various types of human cancer cell lines were propagated under sterile conditions in RPMI 1640 medium with 10% fetal bovine serum, 2 mM L-glutamine and sodium bicarbonate. To determine growth inhibitory effects of Compound I, cells were seeded in 96-well plates at a density of 1000 cells per well. Twenty-four hours after plating, the cells were dosed with various concentrations of the free base of Compound I solubilized in DMSO (final concentration 0.1%). The effect of the drug on tumor cell growth was determined using the neutral red cytotoxicity assay following five days of continuous treatment. Neutral red is a dye that is selectively taken up by viable cells by an ATP-dependent transport mechanism.

The subject of a further data set is Colo 205. As to the kind of experiment: Growth inhibition, neutral red assay, Colo 205. It counts as cell-based, human. As to conditions: free base, five days. The procedure: as §1
The conditions of data set [2]: rat, in vivo.
The nature of data set [3]: Seven-day dose-range finding study in rats. It counts as in vivo, rat.
Data set [4] can be described thus: Safety evaluation in exisulind clinical trials. It counts as in vivo. The procedure: In these exisulind trials and several others involving the drug in other indications, safety was evaluated by monitoring adverse events (AEs), clinical laboratory tests (hematology, serum chemistry, and urinalysis), vital signs (blood pressure, pulse rate, respiratory rate, temperature, and weight), physical examination, and upper endoscopy.

Data set [5] relates to PDE4 purified from human colon HT-29 cultured tumor cells. As to the kind of experiment: PDE4 inhibition assay. The following applies: HT-29 cell enzyme. It counts as biochemical.
For data set [6], the target named is T1, cGMP binding sites of the GST-cGB-PDE5 protein (Homo sapiens, UniProt O76074).
T1 construct: made in house; host or cells: E. coli BL21 (DE3)
T1 sequence (O76074 46-539 limits assumed): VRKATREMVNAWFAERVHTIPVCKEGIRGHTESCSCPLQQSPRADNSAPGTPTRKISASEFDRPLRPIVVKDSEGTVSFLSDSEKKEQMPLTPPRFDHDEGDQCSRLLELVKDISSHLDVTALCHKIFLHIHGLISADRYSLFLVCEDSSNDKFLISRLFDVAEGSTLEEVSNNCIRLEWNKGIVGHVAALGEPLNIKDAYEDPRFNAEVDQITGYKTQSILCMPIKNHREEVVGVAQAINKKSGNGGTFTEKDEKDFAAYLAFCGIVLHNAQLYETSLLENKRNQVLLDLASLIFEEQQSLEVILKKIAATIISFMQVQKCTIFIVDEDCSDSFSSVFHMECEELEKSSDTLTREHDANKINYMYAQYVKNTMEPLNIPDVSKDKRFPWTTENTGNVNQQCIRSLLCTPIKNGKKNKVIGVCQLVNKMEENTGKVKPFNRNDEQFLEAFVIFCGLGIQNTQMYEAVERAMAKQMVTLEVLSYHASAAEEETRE
As to the kind of experiment: cGMP binding assay with GST-cGB-PDE5 fusion protein. As to conditions: 3H-cGMP 2 μM.

The subject of data set [7] is premalignant lesions in mouse mammary gland organ culture. As to the kind of experiment: Mammary gland organ culture model. On mammary gland organ culture: key: −: Not active; +: Slightly active; ++: Moderately active; +++: Strongly active; ++++: Highly active. It counts as cell-based.

With `CC1=C(CC(=O)NCc2ccccc2)c2cc(F)ccc2/C1=C\c1ccncc1` [Compound I, (Z)-5-fluoro-2-methyl-(4-pyridylidene)-3-(N-benzyl)indenylacetamide hydrochloride], the “ACF % Control” value in data set [1] (0.5 g/kg diet) is reported as 100%; in data set [1] (1 g/kg diet), 75%; in data set [1] (1.5 g/kg diet) it was 89%; in [1] (2.0 g/kg diet), 72%. The “Mean ACF/colon (+ SE)” value in [1] (0.5 g/kg diet) was 149 ± 14; in data set [1] (1 g/kg diet), 111 ± 9; in data set [1] (1.5 g/kg diet) it was 132 ± 4; in data set [1] (2.0 g/kg diet), 107 ± 15. In data set [1] (male Fisher 344 rats, drug in chow), the “body weight differences versus controls” value was “less than 10%”. Moreover, the GI50 with SW-620 (Homo sapiens, SW-620, 120 h) came to 1.7 µM; with Colo 205 (Homo sapiens, COLO 205, 120 h), 1.6 µM. Also, the “GI90 μM, SW-620” value in the data set with SW-620 amounted to 2.5 µM. For the same compound, the “GI90 μM, Colo 205” value in the data set on Colo 205 was found to be 2.4 µM. Moreover, the “signs of toxicity, single oral doses” value in [2] is “no observable signs of toxicity”. Also, the “findings after single intraperitoneal dose” value in data set [2] (ip, 1000 mg/kg) is on record as “reduced body weight gain, with mesenteric adhesions seen in some animals”. The “body weight gain, single oral dose” value in [2] (po, 4000 mg/kg) was “body weight gains were slightly reduced”. Besides, in [3] (50 mg/kg/day), the “signs of toxicity, seven-day study” value is recorded as “no observable signs of toxicity”. Further, the “treatment-related effects, seven-day study” value in data set [3] (500 mg/kg/day) is “increase in absolute and relative liver weights in female rats”. Also, the “effects, seven-day study” value in data set [3] (2000 mg/kg/day) is “labored breathing and/or abnormal respiratory sounds, decreased weights gains and food consumption in male rats, and increased liver weights in female rats”.

Turning to `CC1=C(CC(=O)O)c2cc(F)ccc2/C1=C\c1ccc(S(C)(=O)=O)cc1` [Exisulind, 5-fluoro-2-methyl-1-(p-methylsulfonylbenzylidene)-3-indenylacetic acid], in [4] (APC patients), the “apoptosis rates in paired biopsies of polyp and normal colonic tissues” value was “increased apoptosis rates in polyp, but not normal colonic tissues”. Besides, the “toxicities in clinical trials” value in data set [4] (human, in vivo) is “did not demonstrate any blood dyscrasia, dose-limiting vomiting, or neurological or renal toxicities”. Besides, the figures for the “maximum tolerated dose (MTD)” value in data set [4] (patients with intact colons), in data set [4] (patients with subtotal colectomy) and in [4] (pediatric patients) were 400 mg, 600 mg and 350 mg, respectively. Also, the IC50 in data set [5] amounted to 181 µM. Besides, in [6], the “competition with cGMP in binding of GST-cGB-PDE5” value is “do not bind to the cGMP binding sites of PDE5”. For the same compound, the “inhibition of the formation of premalignant lesions” value in data set [7] (mammary gland organ culture) is recorded as “effectively inhibit the formation of premalignant lesions”. Besides, the “Mammary Gland Organ Culture” value in [7] (qualitative activity profile) was “+++”.
